Test results taken from US20250059166A1, “PIPERIDINYLPYRIDINYLCARBONITRILE DERIVATIVES AS INHIBITORS OF GLUTAMINYL-PEPTIDE CYCLOTRANSFERASE AND GLUTAMINYL-PEPTIDE CYCLOTRANSFERASE LIKE PROTEIN” (Boehringer Ingelheim International GmbH, priority 2023, published 2025).
Read-outs that look alike come from different tables or passages of the source.

What was measured:
QPCTL = target: T1, QPCTL (Homo sapiens, UniProt Q9NXS2); assay: Assay A: biochemical QPCTL activity assay (MALDI-TOF MS, CD47 peptide substrate); conditions: compounds of the invention; 0.5 nM enzyme, 10 μM CD47 peptide substrate; read-out: Inhibition of QPCTL: IC50
T1 construct: made in house
Procedure: (§1) QPCT or QPCTL dependent conversion of N-terminal glutamine to pyroglutamate of CD47 was monitored via MALDI-TOF MS. Test compounds were dissolved in 100% DMSO and serially diluted into clear 1,536-well microtiter plates. Enzymatic reactions were set up in assay buffer containing 20 mM Tris pH 7.5, 0.1 mM TCEP, 0.01% BSA, and 0.001% Tween20. […] The plates were incubated for 10 min in a humidified incubator at 24° C. Subsequently, 2.5 μL of CD47 peptide substrate surrogate (^19[…]^33) was added to each well (final concentration: 10 μM for QPCTL/20 μM for QPCT). The plates were mixed for 30 sec at 1,000 rpm and subsequently incubated for 40 min in a humidified incubator at 24° C. […] The plates were sealed with an adhesive foil, mixed for 30 s at 1,000 rpm and stored at room temperature until preparation of the MALDI target plates. […] QPCT or QPCTL activity was monitored by calculating the ratio between product and internal standard signals followed by normalization to high (100% activity) and low (0% activity) controls. Determination of compound potencies was obtained by fitting the dose-response data to a four-parameter logistical equation.

QPCT = target: T2, QPCT (Homo sapiens, UniProt Q16769); assay: Assay A: biochemical QPCT activity assay (MALDI-TOF MS, CD47 peptide substrate); conditions: compounds of the invention; 0.5 nM enzyme, 20 μM CD47 peptide substrate; read-out: Inhibition of QPCT: IC50
T2 construct: purchased Origine (so in the source)
Procedure: as §1

[1] = test system: SIRPα signalling induced by Raji cells; assay: Assay B: SIRPα signalling assay using Raji cells; format: cell-based; conditions: Homo sapiens, read-out: Inhibition of SIRPα signalling induced by Raji cells: IC50
Procedure: (§2) Two cell types are independently used: the Raji cell line (lymphoblast-like human cell line derived from B lymphocytes from a Burkitt's lymphoma patient in 1963) and A549 cells (adenocarcinoma human alveolar basal epithelial cells).
(§3) Test compounds were dissolved in 100% DMSO and serially diluted into a white 384-well microtiter cell culture plate (PerkinElmer #60076780 in case of Raji assay; PDL-coated plates Greiner #781945 in case of A549 assay). 5000 Raji cells (ATCC #CC86) or 5000 A549 cells (ATCC #CCL-185) in Assay Complete Cell Plating reagent 30 (DiscoverX 93-0563R30B) were added per well. The assay plate was incubated for 48 h at 37° C., 95% humidity and 5% CO2. 15000 reporter cells (Jurkat PathHunter SIRPαV1, DiscoverX #93-1135C19) were added to each well, and the plate was incubated for 5 h at 37° C., 95% humidity and 5% CO2. Bioassay reagent 1 of the PathHunter Bioassay detection kit (DiscoverX 93-0001) was added to each well of the plate using a multichannel pipette followed by a 15 min incubation at room temperature. Afterwards bioassay reagent 2 was added followed by 60 min incubation at room temperature (incubation in the dark).
(§4) The analysis of the data was performed using the luminescence signal generated by beta-galactosidase in the PathHunter reporter cell line. The luminescence measurement was done using a Pherastar Multi-Mode Reader. Dose-response curves & IC50 data were calculated with 4-parameter sigmoidal dose response formula.

[2] = test system: SIRPα signalling induced by A549 cells; assay: Assay B: SIRPα signalling assay using A549 cells; format: cell-based; conditions: Homo sapiens
Procedure: as §2, §3, §4

[3] = Assay C: permeability in CACO-2 cells; format: in vitro ADME; conditions: human
Procedure: Caco-2 cells (1-2×10^5 cells/1 cm^2 area) are seeded on filter inserts (Costar transwell polycarbonate or PET filters, 0.4 μm pore size) and cultured (DMEM) for 10 to 25 days. Compounds are dissolved in appropriate solvent (like DMSO, 1-20 mM stock solutions). […] The transport solution (TL) is applied to the apical or basolateral donor side for measuring A-B or B-A permeability (3 filter replicates), respectively. Samples are collected at the start and end of experiment from the donor and at various time intervals for up to 2 hours also from the receiver side for concentration measurement by HPLC-MS/MS or scintillation counting. Sampled receiver volumes are replaced with fresh receiver solution.
Efflux ratio(ER)=permeabilityB−A/permeabilityA−B

[4] = compounds of the invention, Raji cells 48 h, Jurkat PathHunter SIRPαV1 reporter cells 5 h
[5] = compounds of the invention, A549 cells 48 h, Jurkat PathHunter SIRPαV1 reporter cells 5 h, read-out: Inhibition of SIRPα signalling induced by A549 cells: IC50
[6] = pH 7.2, compounds of the invention, Caco-2, permeability B-A / permeability A-B
[7] = compounds of the invention, Caco-2, apical to basolateral, pH 7.2

T2 sequence (Q16769 29-361): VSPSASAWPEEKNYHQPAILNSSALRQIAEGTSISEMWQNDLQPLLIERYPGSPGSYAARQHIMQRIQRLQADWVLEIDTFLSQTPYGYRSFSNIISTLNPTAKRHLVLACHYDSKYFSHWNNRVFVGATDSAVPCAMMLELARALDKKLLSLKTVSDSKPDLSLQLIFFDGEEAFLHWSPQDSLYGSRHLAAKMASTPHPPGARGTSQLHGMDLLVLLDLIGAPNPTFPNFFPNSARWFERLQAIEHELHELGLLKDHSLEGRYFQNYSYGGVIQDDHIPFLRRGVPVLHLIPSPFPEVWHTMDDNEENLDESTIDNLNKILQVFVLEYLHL
T1 sequence (Q9NXS2 whole entry): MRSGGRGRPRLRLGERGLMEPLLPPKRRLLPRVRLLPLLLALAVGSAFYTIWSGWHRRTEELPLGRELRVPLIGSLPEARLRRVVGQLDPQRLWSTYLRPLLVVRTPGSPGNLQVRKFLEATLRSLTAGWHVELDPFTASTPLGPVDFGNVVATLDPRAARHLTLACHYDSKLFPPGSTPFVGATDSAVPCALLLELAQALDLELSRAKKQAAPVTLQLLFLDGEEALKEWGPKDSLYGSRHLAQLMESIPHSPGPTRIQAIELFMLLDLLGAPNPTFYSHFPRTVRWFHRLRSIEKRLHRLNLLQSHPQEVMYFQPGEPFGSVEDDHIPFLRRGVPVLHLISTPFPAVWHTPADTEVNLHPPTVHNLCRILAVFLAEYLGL

SMILES | IC50 (QPCTL) [nM] | IC50 (QPCT) [nM] | IC50 [1, 4] [nM] | IC50 [2, 5] [nM] | efflux ratio at 2 h [3, 6] | Papp A→B at 2 h [3, 7] [×10⁻⁶ cm/s] | Papp A→B at 2 h ([3]; Caco-2, pH 7.2) [×10⁻⁶ cm/s] | efflux ratio at 2 h ([3]; Caco-2, pH 7.2) | IC50 ([1]; prior art compounds, Raji cells 48 h, Jurkat PathHunter SIRPαV1 reporter cells 5 h) [nM] | IC50 ([2]; prior art compounds, A549 cells 48 h, Jurkat PathHunter SIRPαV1 reporter cells 5 h, read-out: Inhibition of SIRPα signalling induced by A549 cells: IC50) [nM] | IC50 ([1]; Raji) [nM] | IC50 ([2]; A549, read-out: Inhibition of SIRPα signalling induced by A549 cells: IC50) [nM]
Cn1cnnc1C1(F)CCN(c2c(C#N)ccnc2-c2cnc3nn(C(F)(F)F)cc3c2)CC1 [Example 16] | 1 | 1 | 37 | 9 | 7.7 | 3.1 | – | – | – | – | – | –
Cn1cnnc1C1(F)CCN(c2c(-c3cnc4nn(C(C)(C)C)cc4c3)ncc(Cl)c2C#N)CC1 [Example 38] | 1 | < 1 | 21 | 6 | 10.9 | 6.6 | – | – | – | – | – | –
Cc1cnc(-c2ccc(F)nc2)c(N2CCC(F)(c3nncn3C)CC2)c1C#N [Example 41] | 1 | 2 | 71 | 16 | 2.6 | 28 | – | – | – | – | – | –
Cc1cc(F)ncc1-c1nccc(C#N)c1N1CCC(F)(c2nncn2C)CC1 [Example 21] | 1 | 6 | 187 | 115 | 2.4 | 18 | – | – | – | – | – | –
CC(C)n1nc2ncc(-c3nc(C4CC4)cc(C#N)c3N3CCC(F)(c4nncn4C)CC3)cc2c1F [Example 30] | 1 | 1 | 25 | 20 | 9.4 | 9.4 | – | – | – | – | – | –
Cn1cnnc1C1(F)CCN(c2c(C#N)cc(C(F)(F)F)nc2-c2cnc(F)cc2Cl)CC1 [Example 10] | 10 | 27 | 352 | 201 | 1.2 | 58 | – | – | – | – | – | –
Cn1cnnc1C1(F)CCN(c2c(-c3ccc(F)nc3)ncc(Cl)c2C#N)CC1 [Example 39] | 3 | 6 | 247 | 106 | 2.9 | 16 | – | – | – | – | – | –
Nc1nnc(C2CCN(c3ncccc3-c3ccc(F)nc3)CC2)s1 [Compound 1095] | – | – | – | – | – | – | 68 | 0.5 | – | – | – | –
Cn1cnnc1C1(F)CCN(c2c(C#N)ccnc2-c2cccnc2)CC1 [Example 19] | 18 | 62 | 2190 | 410 | 2.6 | 11 | – | – | – | – | – | –
Cn1cnnc1C1(F)CCN(c2c(-c3ccc(F)nc3)ncc(C(F)(F)F)c2C#N)CC1 [Example 40] | 4 | 5 | 258 | 115 | 2.8 | 18 | – | – | – | – | – | –
Cn1cnnc1C1CCN(c2ncccc2-c2ccc(F)nc2)CC1 [SEN177, reference compound] | – | – | – | – | – | – | 11 | – | – | – | 1360 | 214
Cn1cnnc1C1CCN(c2ncccc2-c2cccnc2)CC1 [SEN180, reference compound] | – | – | – | – | – | – | 4.2 | – | – | – | – | –
Cn1cnnc1C1(F)CCN(c2c(C#N)cc(C(C)(F)F)nc2-c2ccc(F)nc2)CC1 [Example 34] | 2 | 6 | 37 | 20 | 1.7 | 23 | – | – | – | – | – | –
Cn1cnnc1C1(F)CCN(c2c(C#N)ccnc2-n2cnc3nc(C(F)(F)F)ccc32)CC1 [Example 24] | 7 | 11 | 321 | 349 | 14.1 | 1 | – | – | – | – | – | –
Cn1cnnc1C1(F)CCN(c2c(C#N)cc(C(F)(F)F)nc2-c2cnc3nc(C(F)(F)F)nn3c2)CC1 [Example 12] | 24 | 29 | 860 | 599 | 6.9 | 4.9 | – | – | – | – | – | –
Nc1ncc(C2CCN(c3ncccc3-c3ccc(F)nc3)CC2)s1 [Compound 1094] | – | – | – | – | – | – | 73 | 1 | – | – | – | –
Cn1cnnc1C1CCN(S(=O)(=O)c2cccc(Nc3ccc(OCc4ccccc4)nc3)c2)CC1 [Compound 23] | – | – | – | – | – | – | – | – | > 10000 | > 10000 | – | –

Now from value to compound, other results behind:

IC50 (QPCTL) [nM] | IC50 (QPCT) [nM] | IC50 [1, 4] [nM] | IC50 [2, 5] [nM] | efflux ratio at 2 h [3, 6] | Papp A→B at 2 h [3, 7] [×10⁻⁶ cm/s] | Papp A→B at 2 h ([3]; Caco-2, pH 7.2) [×10⁻⁶ cm/s] | efflux ratio at 2 h ([3]; Caco-2, pH 7.2) | IC50 ([1]; prior art compounds, Raji cells 48 h, Jurkat PathHunter SIRPαV1 reporter cells 5 h) [nM] | IC50 ([2]; prior art compounds, A549 cells 48 h, Jurkat PathHunter SIRPαV1 reporter cells 5 h, read-out: Inhibition of SIRPα signalling induced by A549 cells: IC50) [nM] | SMILES | IC50 ([1]; Raji) [nM] | IC50 ([2]; A549, read-out: Inhibition of SIRPα signalling induced by A549 cells: IC50) [nM]
2 | 2 | 26 | 39 | 11.9 | 5.8 | – | – | – | – | CC(C)n1nc2ncc(-c3nc(C(F)(F)F)cc(C#N)c3N3CCC(F)(c4nncn4C)CC3)cc2c1F [Example 7] | – | –
2 | 2 | 26 | 34 | 2.4 | 38 | – | – | – | – | Cc1cc(C#N)c(N2CCC(F)(c3nncn3C)CC2)c(-c2cnc3nn(C(C)(C)C)c(C(F)(F)F)c3c2)n1 [Example 27] | – | –
< 1 | < 1 | 6 | 13 | 4.2 | 20 | – | – | – | – | Cc1cc(C#N)c(N2CCC(F)(c3nncn3C)CC2)c(-c2cnc3nn(C(C)(C)C)c(Cl)c3c2)n1 [Example 26] | – | –
1 | 1 | 17 | 45 | 2.7 | 29 | – | – | – | – | Cn1cnnc1C1(F)CCN(c2c(C#N)cc(C3CC3)nc2-c2cnc3nn(C(C)(C)C)c(F)c3c2)CC1 [Example 29] | – | –
1 | 1 | 9 | 17 | 6.4 | 5.3 | – | – | – | – | Cn1cnnc1C1(F)CCN(c2c(C#N)cc(C(F)(F)F)nc2-c2cnc3nn(C(C)(C)C)cc3c2)CC1 [Example 1] | – | –
2 | 4 | 41 | 67 | 8.2 | 6.1 | – | – | – | – | Cn1cnnc1C1(F)CCN(c2c(C#N)cc(C(F)(F)F)nc2-c2cnc3nn(C(F)(F)F)cc3c2)CC1 [Example 5] | – | –
1 | 1 | 9 | 7 | 9.9 | 7.6 | – | – | – | – | Cc1cc(C#N)c(N2CCC(F)(c3nncn3C)CC2)c(-c2cnc3nn(C(C)(C)C)c(F)c3c2)n1 [Example 25] | – | –
2 | 2 | 26 | 50 | 10.1 | 7.2 | – | – | – | – | Cn1cnnc1C1(F)CCN(c2c(C#N)cc(C(F)(F)F)nc2-c2cnc3nn(C(C)(C)C(F)(F)F)cc3c2)CC1 [Example 6] | – | –
1 | 1 | 4 | 21 | 8.2 | 8.2 | – | – | – | – | Cn1cnnc1C1(F)CCN(c2c(C#N)cc(C(C)(F)F)nc2-c2cnc3nn(C(C)(C)C)cc3c2)CC1 [Example 32] | – | –
1 | < 1 | 21 | 12 | 6.9 | 12 | – | – | – | – | Cn1cnnc1C1(F)CCN(c2c(C#N)ccnc2-c2cnc3nn(C(C)(C)C)c(Cl)c3c2)CC1 [Example 14] | – | –
